According to patent publication US5534632A, “Macrocyclic carbamate immunomodulators” (Abbott Laboratories, priority 1994, dated 1996):

These compounds were tested on human mixed lymphocyte reaction (MLR) (assay: human mixed lymphocyte reaction (MLR) assay, immunosuppressant activity). Settings: Table 1.
Type: cell-based
Protocol: The immunosuppressant activity of the compounds of the present invention was determined using the human mixed lymphocyte reaction (MLR) assay described by Kino, T. et al. in Transplantation Proceedings, XIX(5):36-39,Suppl.
`CC[C@@H]1/C=C(\C)C[C@H](C)C[C@H](OC)[C@H]2O[C@@](O)(C(=O)C(=O)N3CCCC[C@H]3C(=O)O[C@H](/C(C)=C/[C@@H]3CC[C@@H](OC(=O)N(C)C[C@H](O)[C@@H](O)[C@H](O)[C@H](O)CO)[C@H](OC)C3)[C@H](C)[C@@H](O)CC1=O)[C@H](C)C[C@@H]2OC` [Example 23] was tested, and the IC50 was 50 nM. Work on `CC[C@@H]1/C=C(\C)C[C@H](C)C[C@H](OC)[C@H]2O[C@@](O)(C(=O)C(=O)N3CCCC[C@H]3C(=O)O[C@H](/C(C)=C/[C@@H]3CC[C@@H](OC(=O)N4CCNCC4)[C@H](OC)C3)[C@H](C)[C@@H](O)CC1=O)[C@H](C)C[C@@H]2OC` [Example 21] yielded an IC50 of 11 nM. `CC[C@@H]1/C=C(\C)C[C@H](C)C[C@H](OC)[C@H]2O[C@@](O)(C(=O)C(=O)N3CCCC[C@H]3C(=O)O[C@H](/C(C)=C/[C@@H]3CC[C@H](OC(=O)N(CCO)CCO)[C@H](OC)C3)[C@H](C)[C@@H](O)CC1=O)[C@H](C)C[C@@H]2OC` [Example 45] was tested, and the IC50 was 0.11 nM. `CC[C@@H]1/C=C(\C)C[C@H](C)C[C@H](OC)[C@H]2O[C@@](O)(C(=O)C(=O)N3CCCC[C@H]3C(=O)O[C@H](/C(C)=C/[C@@H]3CC[C@@H](OC(=O)N(O)C4CCCCC4)[C@H](OC)C3)[C@H](C)[C@@H](O)CC1=O)[C@H](C)C[C@@H]2OC` [Example 26] gave an IC50 of 1 nM. In the case of `CC[C@@H]1/C=C(\C)C[C@H](C)C[C@H](OC)[C@H]2O[C@@](O)(C(=O)C(=O)N3CCCC[C@H]3C(=O)O[C@H](/C(C)=C/[C@@H]3CC[C@@H](OC(=O)N(CCO)CCO)[C@H](OC)C3)[C@H](C)[C@@H](O)CC1=O)[C@H](C)C[C@@H]2OC` [Example 13], the IC50 is reported as 3.3 nM. `CC[C@@H]1/C=C(\C)C[C@H](C)C[C@H](OC)[C@H]2O[C@@](O)(C(=O)C(=O)N3CCCC[C@H]3C(=O)O[C@H](/C(C)=C/[C@@H]3CC[C@H](OC(=O)N4CCOCC4)[C@H](OC)C3)[C@H](C)[C@@H](O)CC1=O)[C@H](C)C[C@@H]2OC` [Example 41] gave an IC50 of 0.08 nM. With `CC[C@@H]1/C=C(\C)C[C@H](C)C[C@H](OC)[C@H]2O[C@@](O)(C(=O)C(=O)N3CCCC[C@H]3C(=O)O[C@H](/C(C)=C/[C@@H]3CC[C@@H](OC(=O)N4CCC(c5ccccc5)CC4)[C@H](OC)C3)[C@H](C)[C@@H](O)CC1=O)[C@H](C)C[C@@H]2OC` [Example 19] the IC50 was 2.6 nM. For `CC[C@@H]1/C=C(\C)C[C@H](C)C[C@H](OC)[C@H]2O[C@@](O)(C(=O)C(=O)N3CCCC[C@H]3C(=O)O[C@H](/C(C)=C/[C@@H]3CC[C@H](OC(=O)NC(CO)(CO)CO)[C@H](OC)C3)[C@H](C)[C@@H](O)CC1=O)[C@H](C)C[C@@H]2OC` [Example 40], the IC50 was 0.68 nM. In the case of `CC[C@@H]1/C=C(\C)C[C@H](C)C[C@H](OC)[C@H]2O[C@@](O)(C(=O)C(=O)N3CCCC[C@H]3C(=O)O[C@H](/C(C)=C/[C@@H]3CC[C@@H](OC(=O)N4CCC(O)CC4)[C@H](OC)C3)[C@H](C)[C@@H](O)CC1=O)[C@H](C)C[C@@H]2OC` [Example 15], the IC50 is reported as 1.34 nM. `CC[C@@H]1/C=C(\C)C[C@H](C)C[C@H](OC)[C@H]2O[C@@](O)(C(=O)C(=O)N3CCCC[C@H]3C(=O)O[C@H](/C(C)=C/[C@@H]3CC[C@@H](OC(=O)N(C)Cc4ccccc4)[C@H](OC)C3)[C@H](C)[C@@H](O)CC1=O)[C@H](C)C[C@@H]2OC` [Example 29] gave an IC50 of 4.45 nM. `CC[C@@H]1/C=C(\C)C[C@H](C)C[C@H](OC)[C@H]2O[C@@](O)(C(=O)C(=O)N3CCCC[C@H]3C(=O)O[C@H](/C(C)=C/[C@@H]3CC[C@@H](OC(=O)N(C)CCc4ccccc4)[C@H](OC)C3)[C@H](C)[C@@H](O)CC1=O)[C@H](C)C[C@@H]2OC` [Example 30] gave an IC50 of 4.2 nM. `CC[C@@H]1/C=C(\C)C[C@H](C)C[C@H](OC)[C@H]2O[C@@](O)(C(=O)C(=O)N3CCCC[C@H]3C(=O)O[C@H](/C(C)=C/[C@@H]3CC[C@@H](OC(=O)N4CCN(C)CC4)[C@H](OC)C3)[C@H](C)[C@@H](O)CC1=O)[C@H](C)C[C@@H]2OC` [Example 22] was tested, and the IC50 was 28 nM. For `CC[C@@H]1/C=C(\C)C[C@H](C)C[C@H](OC)[C@H]2O[C@@](O)(C(=O)C(=O)N3CCCC[C@H]3C(=O)O[C@H](/C(C)=C/[C@@H]3CC[C@@H](OC(=O)NOCc4ccccc4)[C@H](OC)C3)[C@H](C)[C@@H](O)CC1=O)[C@H](C)C[C@@H]2OC` [Example 6], the IC50 was 0.21 nM. `CC[C@@H]1/C=C(\C)C[C@H](C)C[C@H](OC)[C@H]2O[C@@](O)(C(=O)C(=O)N3CCCC[C@H]3C(=O)O[C@H](/C(C)=C/[C@@H]3CC[C@@H](OC(=O)N4CCCCC4)[C@H](OC)C3)[C@H](C)[C@@H](O)CC1=O)[C@H](C)C[C@@H]2OC` [Example 12] showed an IC50 of 1.2 nM. `CC[C@@H]1/C=C(\C)C[C@H](C)C[C@H](OC)[C@H]2O[C@@](O)(C(=O)C(=O)N3CCCC[C@H]3C(=O)O[C@H](/C(C)=C/[C@@H]3CC[C@@H](OC(=O)N4CCC(C(N)=O)CC4)[C@H](OC)C3)[C@H](C)[C@@H](O)CC1=O)[C@H](C)C[C@@H]2OC` [Example 36] was tested, and the IC50 was 15 nM. `CC[C@@H]1/C=C(\C)C[C@H](C)C[C@H](OC)[C@H]2O[C@@](O)(C(=O)C(=O)N3CCCC[C@H]3C(=O)O[C@H](/C(C)=C/[C@@H]3CC[C@@H](OC(=O)N4CCC(C(=O)O)CC4)[C@H](OC)C3)[C@H](C)[C@@H](O)CC1=O)[C@H](C)C[C@@H]2OC` [Example 18] was tested, and the IC50 was 13 nM. `CC[C@@H]1/C=C(\C)C[C@H](C)C[C@H](OC)[C@H]2O[C@@](O)(C(=O)C(=O)N3CCCC[C@H]3C(=O)O[C@H](/C(C)=C/[C@@H]3CC[C@@H](OC(=O)N(CC)CCO)[C@H](OC)C3)[C@H](C)[C@@H](O)CC1=O)[C@H](C)C[C@@H]2OC` [Example 28] was tested, and the IC50 was 4.26 nM. `CC[C@@H]1/C=C(\C)C[C@H](C)C[C@H](OC)[C@H]2O[C@@](O)(C(=O)C(=O)N3CCCC[C@H]3C(=O)O[C@H](/C(C)=C/[C@@H]3CC[C@@H](OC(=O)NNC(N)=O)[C@H](OC)C3)[C@H](C)[C@@H](O)CC1=O)[C@H](C)C[C@@H]2OC` [Example 5] was tested, and the IC50 was 8.7 nM. `CC[C@@H]1/C=C(\C)C[C@H](C)C[C@H](OC)[C@H]2O[C@@](O)(C(=O)C(=O)N3CCCC[C@H]3C(=O)O[C@H](/C(C)=C/[C@@H]3CC[C@@H](OC(=O)N4CCOCC4)[C@H](OC)C3)[C@H](C)[C@@H](O)CC1=O)[C@H](C)C[C@@H]2OC` [Example 8] gave an IC50 of 0.4 nM. `CC[C@@H]1/C=C(\C)C[C@H](C)C[C@H](OC)[C@H]2O[C@@](O)(C(=O)C(=O)N3CCCC[C@H]3C(=O)O[C@H](/C(C)=C/[C@@H]3CC[C@@H](OC(=O)N(C)OC)[C@H](OC)C3)[C@H](C)[C@@H](O)CC1=O)[C@H](C)C[C@@H]2OC` [Example 24] was tested, and the IC50 was 1.1 nM. In the case of `CCOC(=O)CN(C)C(=O)O[C@@H]1CC[C@@H](/C=C(\C)[C@H]2OC(=O)[C@@H]3CCCCN3C(=O)C(=O)[C@]3(O)O[C@H]([C@@H](OC)C[C@@H](C)C/C(C)=C/[C@@H](CC)C(=O)C[C@H](O)[C@H]2C)[C@@H](OC)C[C@H]3C)C[C@H]1OC` [Example 32], the IC50 is reported as 27 nM. `CC[C@@H]1/C=C(\C)C[C@H](C)C[C@H](OC)[C@H]2O[C@@](O)(C(=O)C(=O)N3CCCC[C@H]3C(=O)O[C@H](/C(C)=C/[C@@H]3CC[C@@H](OC(=O)NO)[C@H](OC)C3)[C@H](C)[C@@H](O)CC1=O)[C@H](C)C[C@@H]2OC` [Example 27] showed an IC50 of 1.28 nM. With `CC[C@@H]1/C=C(\C)C[C@H](C)C[C@H](OC)[C@H]2O[C@@](O)(C(=O)C(=O)N3CCCC[C@H]3C(=O)O[C@H](/C(C)=C/[C@@H]3CC[C@@H](OC(=O)Nc4ccncc4)[C@H](OC)C3)[C@H](C)[C@@H](O)CC1=O)[C@H](C)C[C@@H]2OC` [Example 14] the IC50 was 0.48 nM. In the case of `CC[C@@H]1/C=C(\C)C[C@H](C)C[C@H](OC)[C@H]2O[C@@](O)(C(=O)C(=O)N3CCCC[C@H]3C(=O)O[C@H](/C(C)=C/[C@@H]3CC[C@@H](OC(=O)N(C)CCN(CC)CC)[C@H](OC)C3)[C@H](C)[C@@H](O)CC1=O)[C@H](C)C[C@@H]2OC` [Example 35], the IC50 is reported as 1.79 nM. Compound `CC[C@@H]1/C=C(\C)C[C@H](C)C[C@H](OC)[C@H]2O[C@@](O)(C(=O)C(=O)N3CCCC[C@H]3C(=O)O[C@H](/C(C)=C/[C@@H]3CC[C@@H](OC(=O)N(C)O)[C@H](OC)C3)[C@H](C)[C@@H](O)CC1=O)[C@H](C)C[C@@H]2OC` [Example 25] has an IC50 of 0.28 nM. `CC[C@@H]1/C=C(\C)C[C@H](C)C[C@H](OC)[C@H]2O[C@@](O)(C(=O)C(=O)N3CCCC[C@H]3C(=O)O[C@H](/C(C)=C/[C@@H]3CC[C@@H](OC(=O)N4CCC(=O)CC4)[C@H](OC)C3)[C@H](C)[C@@H](O)CC1=O)[C@H](C)C[C@@H]2OC` [Example 16] showed an IC50 of 4.75 nM. `CC[C@@H]1/C=C(\C)C[C@H](C)C[C@H](OC)[C@H]2O[C@@](O)(C(=O)C(=O)N3CCCC[C@H]3C(=O)O[C@H](/C(C)=C/[C@@H]3CC[C@H](OC(=O)Nc4ccncc4)[C@H](OC)C3)[C@H](C)[C@@H](O)CC1=O)[C@H](C)C[C@@H]2OC` [Example 43] gave an IC50 of 0.34 nM. `CC[C@@H]1/C=C(\C)C[C@H](C)C[C@H](OC)[C@H]2O[C@@](O)(C(=O)C(=O)N3CCCC[C@H]3C(=O)O[C@H](/C(C)=C/[C@@H]3CC[C@@H](OC(=O)N4CCOCCOCCOCCOCC4)[C@H](OC)C3)[C@H](C)[C@@H](O)CC1=O)[C@H](C)C[C@@H]2OC` [Example 34] showed an IC50 of 1.1 nM.
